# Source: patent US10854312B2, “Selective peptide antagonists” (BIONIZ, LLC, priority 2013, dated 2020)
# Entries after “also recorded” stand apart in the source; their conditions may differ. No end group written: not given here. MAL‑PEG24 = bi-functional PEG24 molecule (Mal-PEG24)
# Legend:
# Assay type in all cases: cell-based
# [1] = test system: human IL-15; experiment: CTLL-2 proliferation assay (WST-1), IL-15; conditions: IL-15 2.5 and 5 ng/ml, BNZ132-PEG-130 0.1-10 μM, WST-1
# Protocol: (§1) FIG. 6A-FIG. 6E presents inhibitory spectrum of BNZ132-1 over γc- and non-γc-cytokines. […] Neutralizing antibodies against each cytokine (R & D systems, 5 μg ml^−1) were included as controls. After 20 h, the cells were pulsed with WST-1 (Clontech) and OD450 of each well was measured after 6 h. A 19-mer scrambled peptide was used as a negative control at 5 μM. The experiments were conducted in triplicate (applies to all experiments in FIG. 6A-FIG. 6E). The result represents one of at least three independent experiments (applies to all experiments in FIG. 6A-FIG. 6E). […] In PT-18 proliferation assay, PT-18β or PT-18h21Rα cells were withdrawn of mouse IL-3 for 12 h before the experiment. Cells were then incubated with 1 nM of mouse IL-4, mouse IL-9, or mouse IL-21 in the presence or absence of the indicated doses (μM) of BNZ132-1. Neutralizing antibodies to each cytokine (5 μg ml^−1, except for anti-mouse IL-21 polyclonal antibody which was used at 15 μg ml−1) and a scrambled control peptide (5 μM) were included as negative controls. WST-1 assay was conducted as described above. […] In PT-18 h21Rα survival assay, PT-18h21Rα cells are described in the text. […] Both parental and hIL-21Rα positive PT-18 cells were washed and incubated without IL-3 for 12 h before the assay. […] The Y-axis represents the cpm (count per minute) values measured by a β-counter. […]
# [2] = test system: human IL-2; experiment: CTLL-2 proliferation assay (WST-1), IL-2; conditions: IL-2 5 and 10 units/ml, BNZ132-PEG-130 0.1-10 μM, WST-1
# Protocol: as §1
# [3] = test system: IL-6; experiment: T1165 cell proliferation assay, IL-6; conditions: IL-6 0.1 ng/ml, BNZ132-PEG-130 0.1-10 μM, 24 hours, WST-1
# Protocol: CTLL2 cells are cultured in the presence of 5 u/ml and 10 u/ml of IL-2 (FIG. 10A) and 2.5 ng/ml and 5 ng/ml of IL-15 (FIG. 10B) in the presence of increasing concentration of BNZ132-PEG-130. T1165 cells are cultured with 0.1 ng/ml of IL-6 (FIG. 10C) and increasing concentration of BNZ132-PEG-130. […] BNZ132-1 was conjugated to BNZ130 via a PEG24 linker. The name of the bi-antagonist peptide is BNZ132-PEG-130. FIG. 10A and FIG. 10B show the results of BNZ132-PEG-130 in IL-2 (FIG. 10A) and IL-15 (FIG. 10B) CTLL2 proliferation assay. Cells were washed and incubated with IL-2 (5 and 10 units/ml), IL-15 (2.5 and 5 ng/ml) in the presence or absence of BNZ132-PEG-130 (0.1-10 μM). Cells were then pulsed with the WST-1 reagent to measure the proliferative response for the next 6 hr (OD450). […] Cells are washed and incubated with IL-6 (0.1 ng/ml) in the presence or absence of BNZ132-PEG-130 (0.1-10 μM) for 24 hours. Cells were then pulsed with WST-1 reagent for the following 6 hr to measure OD450. The BNZ130-1 polypeptide as presented in Table 2, above, is tested for its activity in inhibiting IL-6 activity. T1165 cells that are dependent on human or mouse IL-6 for their growth in vitro are selected. The cell line is cultured in the absence of IL-6, In the presence of IL-6, in the presence of BNZ130-1, and in the presence of IL-6 and BNZ130-1.
sequence,measurement,setting,value
"IKEFLQSFIHIVQSIINT (SEQ ID NO: 130)—MAL-PEG24—SLTHLIERSSRAVLQSLLRASRQ (SEQ ID NO: 131) (linker (positions not given here) via MAL‑PEG24; also: MAL-PEG24 linker joins the two peptides, attachment points not given here) [BNZ132-PEG-130, BNZ132-1 conjugated to BNZ130 via a PEG24 linker; dual peptide antagonist]",inhibition of IL-15-induced proliferation of CTLL2 cells,[1],inhibiting; also recorded: inhibited in a dose response manner
same,inhibition of IL-2-induced proliferation of CTLL2 cells,[2],inhibiting; also recorded: inhibited in a dose response manner
same,inhibition of IL-6-induced proliferation of T1165 cells,[3],inhibiting; also recorded: inhibited in a dose response manner
